Data set [1] addresses Nedd8-ROC1-CUL1 (Homo sapiens (Human), UniProt Q13616). The experiment in a line: Ub chain assembly measured by Coomassie stain. The class given is biochemical. As to the method: (§1) Reaction mixture contained 2 mM ATP, 10 mM MgCl2, 0.01 μg/μl of GST-E1 (Ub), 0.01 μg/μl of Cdc34, 0.1 μg/μl of Nedd8-ROC1-CUL1 or Nedd8-ROC1-CUL4A, and 1 μg/μl of Ub. Where indicated, DMSO and compound were added. The reaction was incubated at 37° C. for 60 min. Following separation of reaction products by SDS-PAGE, proteins were visualized by Coomassie stain.

Data set [2] addresses Nedd8-ROC1-CUL4A (Homo sapiens (Human), UniProt Q13619). Put plainly: Ub chain assembly measured by Coomassie stain. The class given is biochemical. Particulars: 10 μM. As to the method: as §1
Data set [3] relates to THP-1. Put plainly: Apoptosis, Annexin V flow cytometry. The class given is cell-based. Particulars: Homo sapiens, THP-1, THP-1, AML. Summed up: (§2)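 5×10^4 cells were seeded 24 h before treatment, then cultured with compound for 48 h. Pelleted cells were washed in Annexin V binding buffer (HEPES pH 7.4, with CaCl2) and stained in the dark with Annexin V-FITC (2 μg/ml) for 5 min. Apoptosis was read by flow cytometry.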

For data set [4], the system named is MOLT-4. The experiment in a line: Apoptosis, Annexin V flow cytometry. Format: cell-based. Particulars: Homo sapiens; MOLT-4, ALL. The method in brief:
as §2

For data set [5], the system named is H1299. The experiment in a line: Apoptosis, Annexin V flow cytometry. The class given is cell-based. Particulars: Homo sapiens, NCI-H1299; H1299, Lung. Summed up:
as §2

The test system of data set [6] is MDA-MB-231. The experiment in a line: Apoptosis, Annexin V flow cytometry. Format: cell-based. Particulars: Homo sapiens; MDA-MB-231, Breast. Summed up: as §2
For data set [7], the system named is NB-4. Put plainly: Apoptosis, Annexin V flow cytometry. Format: cell-based. Particulars: Homo sapiens; NB-4, AML. Summed up: as §2
The test system of data set [8] is MV4-11. Put plainly: Apoptosis, Annexin V flow cytometry. Format: cell-based. Particulars: Homo sapiens; MV4-11, AML. Summed up: as §2
Data set [9] has as its system K562. The experiment in a line: Apoptosis, Annexin V flow cytometry. Particulars: Homo sapiens; K562, CML. Format: cell-based. Summed up:
as §2

Data set [10] deals with U2OS. Put plainly: Apoptosis, Annexin V flow cytometry. The class given is cell-based. Particulars: Homo sapiens, Bone. Summed up: as §2
For data set [11], the system named is HCT116. Put plainly: Apoptosis, Annexin V flow cytometry. Particulars: Homo sapiens, HCT-116; HCT116, Colon. Format: cell-based. The method in brief:
as §2

Data set [12] has as its system ML-2. Put plainly: Apoptosis, Annexin V flow cytometry. The class given is cell-based. Particulars: Homo sapiens; ML-2, AML. Summed up:
as §2

The target in data set [13] is ROC1-CUL1 (Homo sapiens (Human), UniProt Q13616). Put plainly: Cullin-32P-Ub elongation assay with ROC1-CUL1. Particulars: as much as 150 μM. Format: biochemical.
Chain of ROC1-CUL1 (Q13616 whole entry): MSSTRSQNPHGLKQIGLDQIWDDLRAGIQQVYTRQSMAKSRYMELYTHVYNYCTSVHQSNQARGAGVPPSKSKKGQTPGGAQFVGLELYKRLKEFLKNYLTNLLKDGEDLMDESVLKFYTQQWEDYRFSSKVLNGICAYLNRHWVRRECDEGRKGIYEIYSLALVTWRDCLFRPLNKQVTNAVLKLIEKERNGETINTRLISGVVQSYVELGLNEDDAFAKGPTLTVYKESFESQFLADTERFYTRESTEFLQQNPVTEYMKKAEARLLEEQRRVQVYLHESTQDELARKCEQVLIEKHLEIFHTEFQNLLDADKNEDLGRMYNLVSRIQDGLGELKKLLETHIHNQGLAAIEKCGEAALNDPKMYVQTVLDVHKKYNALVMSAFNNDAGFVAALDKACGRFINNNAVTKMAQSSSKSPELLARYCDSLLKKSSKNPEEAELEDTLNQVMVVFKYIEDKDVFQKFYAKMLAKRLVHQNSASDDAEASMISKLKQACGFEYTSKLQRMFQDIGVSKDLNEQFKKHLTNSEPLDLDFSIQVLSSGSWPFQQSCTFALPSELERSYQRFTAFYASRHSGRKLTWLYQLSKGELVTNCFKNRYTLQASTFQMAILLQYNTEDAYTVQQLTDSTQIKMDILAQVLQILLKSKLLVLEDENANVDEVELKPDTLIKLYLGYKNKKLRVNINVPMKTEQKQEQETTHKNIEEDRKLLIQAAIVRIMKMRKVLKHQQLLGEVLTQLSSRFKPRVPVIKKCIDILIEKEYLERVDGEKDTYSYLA
Chain of ROC1-CUL1 (P62877 whole entry partner): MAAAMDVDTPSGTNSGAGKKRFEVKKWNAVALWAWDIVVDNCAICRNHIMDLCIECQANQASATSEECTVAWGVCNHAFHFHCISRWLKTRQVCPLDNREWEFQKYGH
Data set [14] in a line: Mouse tolerance/toxicity study.
In data set [15] the target is ROC1-CUL2 (Homo sapiens (Human), UniProt Q13617). The experiment in a line: Gel-based di-Ub synthesis. Format: biochemical. Particulars: up to 150 μM.
Chain of ROC1-CUL2 (Q13617 whole entry): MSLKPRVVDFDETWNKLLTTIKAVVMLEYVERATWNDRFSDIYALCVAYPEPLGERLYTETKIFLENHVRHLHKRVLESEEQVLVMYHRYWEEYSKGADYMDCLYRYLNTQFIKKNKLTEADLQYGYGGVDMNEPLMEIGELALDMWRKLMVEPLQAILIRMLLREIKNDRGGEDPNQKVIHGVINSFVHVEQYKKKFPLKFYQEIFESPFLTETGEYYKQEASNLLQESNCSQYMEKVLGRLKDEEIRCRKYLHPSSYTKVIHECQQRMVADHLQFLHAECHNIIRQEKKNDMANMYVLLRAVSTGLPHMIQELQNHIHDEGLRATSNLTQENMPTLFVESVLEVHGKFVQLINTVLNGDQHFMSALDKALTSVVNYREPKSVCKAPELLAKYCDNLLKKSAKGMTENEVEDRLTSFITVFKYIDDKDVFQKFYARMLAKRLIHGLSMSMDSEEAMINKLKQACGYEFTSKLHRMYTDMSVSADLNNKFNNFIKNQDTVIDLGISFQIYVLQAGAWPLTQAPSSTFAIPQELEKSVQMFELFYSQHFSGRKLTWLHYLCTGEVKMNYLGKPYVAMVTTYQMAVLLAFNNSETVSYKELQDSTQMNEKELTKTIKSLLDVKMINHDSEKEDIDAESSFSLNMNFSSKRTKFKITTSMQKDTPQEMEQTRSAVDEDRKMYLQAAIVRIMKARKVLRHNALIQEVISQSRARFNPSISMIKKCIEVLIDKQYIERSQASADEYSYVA
Chain of ROC1-CUL2 (P62877 whole entry partner): as the sequence (P62877 whole entry partner) above
Data set [16] has as its system tumor cell lines. The experiment in a line: Cytotoxicity in a subset of tumor cell lines. The class given is cell-based. As to the method: Cells (5×10^4) were seeded 24 hours before compound treatment. Compound was added to the culture media and cells were cultured with the compound for 48 hours. The treated cells were then transferred into 5 ml flow cytometry tubes and the well was washed once with PBS to collect any remaining cells. The cells were then pelleted at 500×g for 5 min with a Beckman CS-6KR centrifuge at 4° C. After removal of supernatant, the cells pellet was washed with Annexin V binding buffer (10 mM Hepes-NaOH, pH 7.4, 150 mM NaCl, 5 mM KCl, 1 mM MgCl2, and 1.8 mM CaCl2). Cells were pelleted once again and incubated in the dark with Annexin V-FITC (2 μg/ml) in binding buffer for 5 min then analyzed using LSRFortessa flow cytometer (BD).
For cell viability assay, 10,000 cells (per well) were seeded in 96 well plates in 100 microliters of media and incubated overnight. Serial dilutions of compounds tested were then added to wells in triplicate. The cells were incubated for an additional 48 hours. […] The luminescence of each well was then read using a Synergy multi-mode plate reader (BioTek). For determining relative luminescence, the background (average reading of wells containing only media and CellTiter-Glo reagent, no cells) was first subtracted from the reading of each sample. […] Then EC50 was determined using the four parameter logistics regression standard curve.

Data set [17] has as its target E3 (CUL4) (Homo sapiens (Human), UniProt Q13619). The experiment in a line: E3 (CUL4) inhibition (Table 1). The class given is biochemical. The method in brief:
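Two-step assay: Cdc34b-Ub thiol ester formation, then chase with ROC1-cullin mono-ubiquitination mix for 10 min at 37° C in 50 mM Tris-HCl pH 7.4, 0.5 mM DTT, 0.1 mg/ml BSA, 5 mM MgCl2, 2 mM ATP with compounds. 32P-Ub chain products resolved by SDS-PAGE and quantified by phospho-imaging.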

In data set [18] the test system is MV4-11 cells. The experiment in a line: Cell viability assay (CellTiter-Glo). Format: cell-based. Particulars: Homo sapiens; MV4-11, 48 hours. As to the method: The ability of #33-11 to induce apoptosis was measured by Annexin V flow cytometry (FIG. 1A). EC50/EC90 for each cell line are indicated. […] Mouse pancreatic cancer cell lines K8484 and DT8082 were isolated from the KPC mice (Olive et al., “Inhibition of Hedgehog Signaling Enhances Delivery of Chemotherapy in a Mouse Model of Pancreatic Cancer,” Science 324(5933):1457-1461 (2009), which is hereby incorporated by reference in its entirety), the rest (34 in total) are all human cancer cell lines. Washout: MV4-11 cells at 10^5 cells/ml were treated with compound at concentrations as indicated (FIG. 1C). At specified hours post compound treatment, the cells were washed once with fresh complete media without compound and allowed to grow for additional 48 hours followed by viability test as in FIG. 1B.
For cell viability assay, 10,000 cells (per well) were seeded in 96 well plates in 100 microliters of media and incubated overnight. Serial dilutions of compounds tested were then added to wells in triplicate. […] The luminescence of each well was then read using a Synergy multi-mode plate reader (BioTek). For determining relative luminescence, the background (average reading of wells containing only media and CellTiter-Glo reagent, no cells) was first subtracted from the reading of each sample. […] Then EC50 was determined using the four parameter logistics regression standard curve.

Data set [19] is described as follows: In vitro stability in mouse, rat and human microsomes. Format: in vitro ADME. As to the method: ADME studies on compounds #33-11 and KH-4-43 for “absorption, distribution, metabolism, and excretion” were carried out at CRO, BioDuro. Kinetic solubility, plasma and microsome stability in rat, mouse and human, as well as Caco-2 Permeability were examined.

Some results are limits rather than exact numbers.

Chain of Nedd8-ROC1-CUL1 (Q13616 whole entry): as the sequence (Q13616 whole entry) above
Chain of Nedd8-ROC1-CUL1 (P62877 whole entry partner): as the sequence (P62877 whole entry partner) above
Chain of Nedd8-ROC1-CUL1 (Q15843 1-76 partner): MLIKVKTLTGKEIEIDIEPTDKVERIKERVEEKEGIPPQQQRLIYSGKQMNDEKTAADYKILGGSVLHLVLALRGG
Chain of E3 (CUL4) (Q13619 whole entry): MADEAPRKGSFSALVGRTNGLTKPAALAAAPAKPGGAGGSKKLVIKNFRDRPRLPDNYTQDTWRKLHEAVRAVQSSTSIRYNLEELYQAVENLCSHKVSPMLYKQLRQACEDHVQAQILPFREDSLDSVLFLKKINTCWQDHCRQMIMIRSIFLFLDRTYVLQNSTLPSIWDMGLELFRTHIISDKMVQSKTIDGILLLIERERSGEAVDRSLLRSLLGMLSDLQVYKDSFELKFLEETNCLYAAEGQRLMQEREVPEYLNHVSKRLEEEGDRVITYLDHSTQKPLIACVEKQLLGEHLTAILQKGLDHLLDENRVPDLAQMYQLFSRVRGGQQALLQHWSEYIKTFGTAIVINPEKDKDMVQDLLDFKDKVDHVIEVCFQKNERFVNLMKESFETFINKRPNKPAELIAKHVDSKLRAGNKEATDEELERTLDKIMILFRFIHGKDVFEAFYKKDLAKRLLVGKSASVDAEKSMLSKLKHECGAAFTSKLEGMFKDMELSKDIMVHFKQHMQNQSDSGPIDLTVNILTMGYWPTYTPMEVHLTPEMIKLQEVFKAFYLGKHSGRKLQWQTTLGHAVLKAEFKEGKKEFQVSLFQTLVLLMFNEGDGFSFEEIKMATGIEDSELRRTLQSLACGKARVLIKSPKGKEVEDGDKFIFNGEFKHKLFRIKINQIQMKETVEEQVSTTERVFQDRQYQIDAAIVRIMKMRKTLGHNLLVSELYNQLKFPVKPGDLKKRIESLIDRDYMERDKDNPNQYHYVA
Chain of E3 (CUL4) (P62877 whole entry partner): as the sequence (P62877 whole entry partner) above
Chain of Nedd8-ROC1-CUL4A (Q13619 39-759 limits assumed): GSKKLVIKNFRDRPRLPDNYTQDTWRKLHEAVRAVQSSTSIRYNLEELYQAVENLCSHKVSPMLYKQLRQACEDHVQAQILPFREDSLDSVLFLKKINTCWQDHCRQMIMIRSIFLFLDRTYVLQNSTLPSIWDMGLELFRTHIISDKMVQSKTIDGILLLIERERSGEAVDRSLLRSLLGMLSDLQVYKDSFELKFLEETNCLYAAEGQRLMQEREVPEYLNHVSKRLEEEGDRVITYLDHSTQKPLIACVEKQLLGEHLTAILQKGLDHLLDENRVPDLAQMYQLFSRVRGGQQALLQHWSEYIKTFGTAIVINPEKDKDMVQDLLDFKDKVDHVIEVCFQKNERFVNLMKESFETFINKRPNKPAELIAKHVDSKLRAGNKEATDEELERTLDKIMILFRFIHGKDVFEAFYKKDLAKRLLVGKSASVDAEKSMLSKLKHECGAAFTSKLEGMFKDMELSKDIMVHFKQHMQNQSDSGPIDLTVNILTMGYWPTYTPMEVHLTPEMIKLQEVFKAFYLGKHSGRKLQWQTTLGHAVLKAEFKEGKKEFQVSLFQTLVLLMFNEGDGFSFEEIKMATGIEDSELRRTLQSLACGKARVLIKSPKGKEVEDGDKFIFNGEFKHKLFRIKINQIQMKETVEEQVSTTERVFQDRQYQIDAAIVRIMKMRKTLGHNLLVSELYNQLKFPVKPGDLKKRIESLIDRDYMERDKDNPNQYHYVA
Chain of Nedd8-ROC1-CUL4A (P62877 15-108 partner limits assumed): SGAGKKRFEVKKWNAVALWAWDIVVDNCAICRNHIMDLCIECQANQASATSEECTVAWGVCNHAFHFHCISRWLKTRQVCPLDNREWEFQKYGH
Chain of Nedd8-ROC1-CUL4A (Q15843 1-76 partner limits assumed): as the sequence (Q15843 1-76 partner) above

In the case of `O=c1c(-c2cnn(-c3ccccc3)c2)c(C(F)(F)F)oc2c(O)c(O)ccc12` [#33-11, 7,8-dihydroxy-3-(1-phenyl-1H-pyrazol-4-yl)-2-(trifluoromethyl)-4H-chromen-4-one], the “effect on Ub chain assembly” value in data set [1] (1 mM) was “blocked the utilization of Ub”; in data set [1] (10 or 100 μM), “little effect”; in data set [2], “block the utilization of free Ub”. In addition, the EC50 in data set [3] is 14 µM; in [4] it was around 5 µM; in data set [5], around 81 µM; in [6], above 100 µM; in [7], around 7 µM; in data set [8], around 13 µM. Moreover, the EC50 in data set [9] was around 54 µM; in [10] it was around 78 µM; in data set [11] it was around 58 µM; in [12], around 14 µM. Further, the “effect on levels of CUL1-32P-Ub” value in [13] is “little effects”. Besides, the necropsy findings entry in data set [14] (50 mg/kg) is reported as “no adverse effects”. In [14] (50 mg/kg IP daily, 7 days), the body weight loss result is given as “no significant body weight loss”. In addition, the “level of di-Ub product” value in [15] is recorded as “remained almost unchanged”.
Consider `O=c1c(-c2cnn(-c3ccc(Cl)cc3)c2)c(C(F)(F)F)oc2c(O)c(O)ccc12` [KH-4-43, 3-(1-(4-chlorophenyl)-1H-pyrazol-4-yl)-7,8-dihydroxy-2-(trifluoromethyl)-4H-chromen-4-one], for which the figures for the EC50 in data set [16], in data set [17] and in data set [18] were around 2 µM, 10 µM and 3 µM, respectively. This compound also gave a half-life in [19] above 5 h.
